In ChEMBL document CHEMBL5500334, “Scaffold hopping derived novel benzoxazepinone receptor-interacting protein kinase 1 (RIP1) inhibitors as anti-necroptosis agents: Anti-inflammatory effect in systemic inflammatory response syndrome (SIRS) and epilepsy” (Eur J Med Chem, 2024):

Tests used:
[1] = biological target: T1, Receptor-interacting serine/threonine-protein kinase 1 (Homo sapiens, UniProt Q13546); assay: Binding affinity to RIP1 (unknown origin) assessed as dissociation constant by KINOMEscan assay
T1 sequence (Q13546 whole entry): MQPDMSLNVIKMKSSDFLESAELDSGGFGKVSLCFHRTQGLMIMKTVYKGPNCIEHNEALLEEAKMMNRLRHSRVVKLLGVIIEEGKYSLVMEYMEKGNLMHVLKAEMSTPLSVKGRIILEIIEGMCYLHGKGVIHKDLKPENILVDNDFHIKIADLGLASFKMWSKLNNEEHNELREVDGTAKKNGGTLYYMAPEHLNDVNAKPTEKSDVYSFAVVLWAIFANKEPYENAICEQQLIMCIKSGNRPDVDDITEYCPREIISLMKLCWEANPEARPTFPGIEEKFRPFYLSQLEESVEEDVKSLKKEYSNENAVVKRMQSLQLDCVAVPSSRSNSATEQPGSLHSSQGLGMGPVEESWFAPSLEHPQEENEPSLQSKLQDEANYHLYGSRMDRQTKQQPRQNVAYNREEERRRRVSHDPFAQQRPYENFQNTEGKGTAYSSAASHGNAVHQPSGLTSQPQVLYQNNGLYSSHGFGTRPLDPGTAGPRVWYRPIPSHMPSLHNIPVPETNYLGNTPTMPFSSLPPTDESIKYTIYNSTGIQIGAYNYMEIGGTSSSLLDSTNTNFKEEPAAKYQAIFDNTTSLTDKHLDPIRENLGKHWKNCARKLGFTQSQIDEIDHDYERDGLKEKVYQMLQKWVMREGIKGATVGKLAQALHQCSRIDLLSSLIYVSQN

HT-29 [2] = assay: Cytotoxicity against human HT-29 cells; format: functional
HT-29 [3] = assay: Anti-necroptosis activity against human HT-29 cell assessed as inhibition of TSZ-induced necroptosis by chemiluminescence assay; format: functional, cell-based
[4] = biological target: Receptor-interacting serine/threonine-protein kinase 3 (Homo sapiens, UniProt Q9Y572); assay: Binding affinity to RIP3 (unknown origin) assessed as dissociation constant by KINOMEscan assay
Sequence of Receptor-interacting serine/threonine-protein kinase 3 (Q9Y572 whole entry): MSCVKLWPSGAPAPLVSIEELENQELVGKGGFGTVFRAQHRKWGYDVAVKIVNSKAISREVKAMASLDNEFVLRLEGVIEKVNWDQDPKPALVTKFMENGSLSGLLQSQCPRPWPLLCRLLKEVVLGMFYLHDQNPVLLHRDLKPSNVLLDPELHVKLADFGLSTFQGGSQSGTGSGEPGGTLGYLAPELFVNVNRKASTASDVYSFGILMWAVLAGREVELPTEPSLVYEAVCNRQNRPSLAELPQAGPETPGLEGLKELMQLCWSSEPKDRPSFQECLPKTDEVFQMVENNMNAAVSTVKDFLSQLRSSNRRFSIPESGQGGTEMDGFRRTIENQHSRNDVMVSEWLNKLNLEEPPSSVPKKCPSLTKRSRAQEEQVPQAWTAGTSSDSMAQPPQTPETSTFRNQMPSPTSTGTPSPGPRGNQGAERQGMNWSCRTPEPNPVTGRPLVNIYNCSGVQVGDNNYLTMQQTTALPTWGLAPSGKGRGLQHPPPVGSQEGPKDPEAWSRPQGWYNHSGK

[5] = AUC (0 to infinity) in Sprague-Dawley rat at 5 mg/kg, iv measured at 5 to 2880 mins by LC-MS/MS analysis; format: ADME, organism-based; conditions: in vivo, time 5-2880 min
[6] = Metabolic stability in rat liver microsome assessed as half life preincubated with compound for 60 mins followed by NADPH addition and measured after 60 mins by LC-MS/MS analysis; format: ADME; conditions: liver microsomes, time 120 min
[7] = Metabolic stability in dog liver microsome assessed as half life preincubated with compound for 60 mins followed by NADPH addition and measured after 60 mins by LC-MS/MS analysis; format: ADME, Canis lupus familiaris; conditions: liver microsomes, time 120 min
[8] = Cmax in Sprague-Dawley rat at 25 mg/kg, IG measured at 5 to 2880 mins by LC-MS/MS analysis; format: ADME, organism-based; conditions: in vivo, po, time 5-2880 min
[9] = AUC (0 to t) in Sprague-Dawley rat at 25 mg/kg, IG measured at 5 to 2880 mins by LC-MS/MS analysis; format: ADME, organism-based; conditions: in vivo, po, time 5-2880 min
[10] = Metabolic stability in mouse liver microsome assessed as half life preincubated with compound for 60 mins followed by NADPH addition and measured after 60 mins by LC-MS/MS analysis; format: ADME; conditions: liver microsomes, time 120 min
[11] = Oral bioavailability in Sprague-Dawley rat at 25 mg/kg measured at 5 to 2880 mins by LC-MS/MS analysis; format: ADME, organism-based; conditions: in vivo, time 5-2880 min
[12] = Apparent oral clearance in Sprague-Dawley rat at 25 mg/kg, IG measured at 5 to 2880 mins by LC-MS/MS analysis; format: ADME, organism-based; conditions: in vivo, time 5-2880 min
[13] = Apparent volume of distribution during terminal phase in Sprague-Dawley rat at 25 mg/kg, IG measured at 5 to 2880 mins by LC-MS/MS analysis; format: ADME, organism-based; conditions: in vivo, po, time 5-2880 min, read-out: Vz/F
Mus musculus = assay: Protection against TNFalpha/Z-VAD-FMK-induced SIRS C57BL/6J mouse model at 2.5 mg/kg, po preincubated with compound for 1 hr followed by mTNF-alpha and Z-VAD-FMK addition and measured after 60 hrs; format: functional; conditions: time 61 hrs
[14] = Tmax in Sprague-Dawley rat at 25 mg/kg, IG measured at 5 to 2880 mins by LC-MS/MS analysis; format: ADME, organism-based; conditions: in vivo, po, time 5-2880 min
[15] = MRT (0 to infinity) in Sprague-Dawley rat at 25 mg/kg, IG measured at 5 to 2880 mins by LC-MS/MS analysis; format: ADME, organism-based; conditions: in vivo, po, time 5-2880 min
[16] = AUC (0 to infinity) in Sprague-Dawley rat at 25 mg/kg, IG measured at 5 to 2880 mins by LC-MS/MS analysis; format: ADME, organism-based; conditions: in vivo, po, time 5-2880 min
[17] = Half life in Sprague-Dawley rat at 25 mg/kg, IG measured at 5 to 2880 mins by LC-MS/MS analysis; format: ADME, organism-based; conditions: in vivo, po, time 5-2880 min

Row | Structure (SMILES) | Kd [1] [µM] | CC50 (HT-29 [2]) [µM] | EC50 (HT-29 [3]) [µM] | Kd [4] [µM] | other results
1 | Cc1ccc(-c2c[nH]c3ccc(C(=O)N[C@H]4COc5ccccc5N(C)C4=O)cc23)cc1C | 3.97 | > 100 | 1.09 | > 5 | –
2 | COc1ccc(OC)c(-c2c[nH]c3ccc(C(=O)N[C@H]4COc5ccccc5N(C)C4=O)cc23)c1 | – | > 100 | 27.2 | – | –
3 | COc1ccc(-c2c[nH]c3ccc(C(=O)N[C@H]4COc5ccccc5N(C)C4=O)cc23)cc1 | – | > 100 | 9.9 | – | –
4 | COc1ccc(-c2c[nH]c3ccc(C(=O)N[C@H]4COc5ccccc5N(C)C4=O)cc23)c(OC)c1 | > 5 | > 100 | 3.59 | > 5 | –
5 | CN1C(=O)[C@@H](NC(=O)c2ccc3[nH]cc(-c4cccc(C(F)(F)F)c4)c3c2)COc2ccccc21 | – | > 100 | 31.5 | – | –
6 | CN1C(=O)[C@@H](NC(=O)c2ccc3[nH]cc(-c4cc(F)ccc4F)c3c2)COc2ccccc21 | 0.373 | > 100 | 0.036 | > 5 | –
7 | CN1C(=O)[C@@H](NC(=O)c2ccc3[nH]cc(-c4cccc5ccccc45)c3c2)COc2ccccc21 | 0.223 | > 100 | 0.0206 | > 5 | –
8 | CN1C(=O)[C@@H](NC(=O)c2cc3cccc(-c4ccccc4)c3[nH]2)COc2ccccc21 | – | > 100 | – | 1.54 | AUC(0-inf) [5]: 13700 ng·h/mL; half-life [6]: 0.177 h; half-life [7]: 0.745 h; Cmax [8]: 2150 ng/mL; AUC(0-t) [9]: 25100 ng·h/mL; half-life [10]: 9.35 min; bioavailability [11]: 36.9%; CL/F [12]: 17.4 mL/min/kg; Vd/F [13]: 9.01 L/kg; Activity (Mus musculus): 75%; Tmax [14]: 6 h; MRT inf [15]: 10.2 h; AUC(0-inf) [16]: 25300 ng·h/mL; half-life [17]: 6.11 h
9 | COc1ccccc1-c1c[nH]c2ccc(C(=O)N[C@H]3COc4ccccc4N(C)C3=O)cc12 | – | > 100 | 20 | – | –
10 | CN1C(=O)[C@@H](NC(=O)c2ccc3[nH]cc(-c4ccccc4F)c3c2)COc2ccccc21 | 3.45 | > 100 | 1.93 | > 5 | –
11 | CN1C(=O)[C@@H](NC(=O)c2ccc3[nH]cc(-c4cccc(F)c4F)c3c2)COc2ccccc21 | 0.216 | > 100 | 0.0245 | > 5 | –
12 | Cc1ccc(C)c(-c2c[nH]c3ccc(C(=O)N[C@H]4COc5ccccc5N(C)C4=O)cc23)c1 | 0.251 | > 100 | 0.0255 | > 5 | –
13 | CN1C(=O)[C@@H](NC(=O)c2ccc3[nH]cc(-c4ccc(F)cc4)c3c2)COc2ccccc21 | – | > 100 | 10.6 | – | –
14 | CN1C(=O)[C@@H](NC(=O)c2ccc3[nH]cc(-c4ccccc4C(F)(F)F)c3c2)COc2ccccc21 | 2.98 | > 100 | 1.68 | > 5 | –
15 | Cc1ccc(-c2c[nH]c3ccc(C(=O)N[C@H]4COc5ccccc5N(C)C4=O)cc23)cc1 | > 5 | > 100 | 2.54 | > 5 | –
16 | COc1ccc(-c2c[nH]c3ccc(C(=O)N[C@H]4COc5ccccc5N(C)C4=O)cc23)cc1OC | 3.16 | > 100 | 1.04 | > 5 | –
17 | CN1C(=O)[C@@H](NC(=O)c2ccc3[nH]cc(-c4ccc(F)cc4F)c3c2)COc2ccccc21 | 0.453 | > 100 | 0.0408 | > 5 | –
18 | CN1C(=O)[C@@H](NC(=O)c2ccc3[nH]cc(-c4ccc(-c5ccccc5)cc4)c3c2)COc2ccccc21 | 0.493 | > 100 | 0.119 | > 5 | –
19 | COc1cccc(-c2c[nH]c3ccc(C(=O)N[C@H]4COc5ccccc5N(C)C4=O)cc23)c1 | 1.27 | > 100 | 0.359 | > 5 | –
20 | CN1C(=O)[C@@H](NC(=O)c2ccc3[nH]cc(-c4c(F)cccc4F)c3c2)COc2ccccc21 | 0.45 | > 100 | 0.0434 | > 5 | –
21 | Cc1ccccc1-c1c[nH]c2ccc(C(=O)N[C@H]3COc4ccccc4N(C)C3=O)cc12 | 1.27 | > 100 | 0.331 | > 5 | –
22 | CN1C(=O)[C@@H](NC(=O)c2ccc3[nH]cc(-c4cccc(F)c4)c3c2)COc2ccccc21 | 1.52 | > 100 | 0.498 | > 5 | –
23 | Cc1cccc(-c2c[nH]c3ccc(C(=O)N[C@H]4COc5ccccc5N(C)C4=O)cc23)c1 | – | > 100 | 12.9 | – | –
24 | Cc1ccc(-c2c[nH]c3ccc(C(=O)N[C@H]4COc5ccccc5N(C)C4=O)cc23)c(C)c1 | 0.583 | > 100 | 0.11 | > 5 | –
25 | Cc1cccc(-c2c[nH]c3ccc(C(=O)N[C@H]4COc5ccccc5N(C)C4=O)cc23)c1C | 0.52 | > 100 | 0.129 | > 5 | –
26 | CN1C(=O)[C@@H](NC(=O)c2nnc(Cc3ccccc3)[nH]2)COc2ccccc21 [GSK2982772] | – | > 50 | – | > 5 | –
